In this test the target is native receptor, mGluR5d (Rattus norvegicus, UniProt P31424). Kind of test: Antagonist activity on the native receptor mGluR5d. Type of test: cell-based. As for the experimental part: Primary astrocyte cultures were prepared from 3-5 day old Sprague-Dawley rat pups using a modification of Miller (Miller et al, J. Neuroscience, 15(9): 6103-6109, 1995). In brief, primary cultures were plated on poly-L lysine coated flasks in Dulbecco's modified Eagle's medium (DMEM) containing fetal calf serum (FCS). After 6 days, cell cultures were shaken over night at 280 rpm, then transferred to astrocyte-defined media (ADM) containing growth factors that up-regulate the expression of mGluR5 (Miller et al., 1995). […] For FLIPR analysis, cells were seeded on poly-D lysine coated clear bottom 96-well plates with black sides and analysis of [Ca^2+]i mobilization was performed 3 days following the growth factor up-regulation. Cell cultures in the 96-well plates were loaded with a 4 µM solution of acetoxymethyl ester form of the fluorescent calcium indicator fluo-3 (Molecular Probes, Eugene, Oregon) in 0.01 % pluronic. All assays were performed in a buffer containing 127 mM NaCl, 5 mM KCl, 2 mM MgCl2, 0.7 mM NaH2PO4, 2 mM CaCl2, 0.422 mg/ml NaHCO3, 2.4 mg/ml HEPES, 1.8 mg/ml glucose and 1 mg/ml BSA Fraction IV (pH 7.4). […] After each addition the fluorescence signal was sampled 50 times at 1 second intervals followed by 3 samples at 5 second intervals. Responses were measured as the peak height of the response within the sample period. […]
Sequence of native receptor, mGluR5d (P31424 21-1203): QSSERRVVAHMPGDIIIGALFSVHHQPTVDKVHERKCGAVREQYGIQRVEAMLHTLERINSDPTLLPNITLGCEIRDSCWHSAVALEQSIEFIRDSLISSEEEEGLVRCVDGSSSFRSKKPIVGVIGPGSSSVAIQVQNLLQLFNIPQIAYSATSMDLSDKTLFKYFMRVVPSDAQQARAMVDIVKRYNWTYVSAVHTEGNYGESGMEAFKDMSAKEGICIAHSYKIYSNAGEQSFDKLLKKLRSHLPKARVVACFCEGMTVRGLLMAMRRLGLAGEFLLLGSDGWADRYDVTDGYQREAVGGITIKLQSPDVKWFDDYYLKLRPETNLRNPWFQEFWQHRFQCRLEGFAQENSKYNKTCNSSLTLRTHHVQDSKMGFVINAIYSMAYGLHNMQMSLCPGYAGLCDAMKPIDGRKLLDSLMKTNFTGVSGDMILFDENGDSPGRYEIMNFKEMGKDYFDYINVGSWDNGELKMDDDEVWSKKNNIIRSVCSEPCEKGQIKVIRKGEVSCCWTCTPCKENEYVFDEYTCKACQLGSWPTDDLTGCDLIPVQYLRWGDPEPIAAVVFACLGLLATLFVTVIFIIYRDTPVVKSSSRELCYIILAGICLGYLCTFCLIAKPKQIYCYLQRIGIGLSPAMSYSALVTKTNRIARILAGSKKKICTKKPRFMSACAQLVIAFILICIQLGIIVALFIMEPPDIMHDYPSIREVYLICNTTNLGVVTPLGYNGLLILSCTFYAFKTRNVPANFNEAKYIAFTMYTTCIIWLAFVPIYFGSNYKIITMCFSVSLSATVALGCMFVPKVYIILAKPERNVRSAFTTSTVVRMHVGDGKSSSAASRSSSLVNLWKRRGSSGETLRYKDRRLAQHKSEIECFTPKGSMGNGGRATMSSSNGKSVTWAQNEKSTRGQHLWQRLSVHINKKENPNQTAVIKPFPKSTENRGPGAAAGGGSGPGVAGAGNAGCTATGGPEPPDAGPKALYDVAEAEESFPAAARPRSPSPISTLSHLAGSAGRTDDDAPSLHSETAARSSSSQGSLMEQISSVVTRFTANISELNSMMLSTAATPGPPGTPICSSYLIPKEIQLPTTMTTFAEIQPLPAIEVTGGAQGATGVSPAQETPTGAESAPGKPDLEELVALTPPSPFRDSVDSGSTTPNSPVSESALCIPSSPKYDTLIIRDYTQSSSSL

As for `N#Cc1cccc(-c2nc(-c3ccccn3)no2)c1` [B21, 3-(2-pyridyl)-5-(3-cyanophenyl)-1,2,4-oxadiazole], the half-inhibitory concentration (IC50) came to 121 nM.
Turning to `N#Cc1cccc(-c2nc(-c3ccccn3)co2)c1` [B52, 2-[3-cyanophenyl]-4-[pyridin-2-yl]-1,3-oxazole], the IC50 stood at 74 nM.

In general, IC50 refers to the concentration needed to halve the response being measured. Low values mean greater potency in that assay, high ones weaker potency in that assay.

Values taken from patent EP1582519A2, “Heteropolycyclic compounds and their use as metabotropic glutamate receptor antagonists” (NPS PHARMACEUTICALS, INC., priority 1999, dated 2001).
